Assay results as given in US20220306630A1, “AGONISTS OF ROR GAMMAt” (BRISTOL-MYERS SQUIBB COMPANY, priority 2019, published 2022).

Biological target: T1, RORgT (Homo sapiens, UniProt P51449)
T1 construct: Gal4 (fusion partner); expressed in transfected cells; host or cells: engineered Jurkat cells (Jurkat pEx/Gal/hRORγ CLBD/HYG pG5luc/blast)
T1 sequence (P51449 267-516): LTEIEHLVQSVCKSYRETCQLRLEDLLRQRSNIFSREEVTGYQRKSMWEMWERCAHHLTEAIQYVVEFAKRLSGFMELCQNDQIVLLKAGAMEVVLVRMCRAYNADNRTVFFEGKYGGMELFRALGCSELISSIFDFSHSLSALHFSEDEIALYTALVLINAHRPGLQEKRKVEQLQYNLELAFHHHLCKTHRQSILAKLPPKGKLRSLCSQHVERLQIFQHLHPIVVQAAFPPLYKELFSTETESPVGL
Assay: RORgT Gal4 Luciferase Reporter Gene Assay
Assay type: cell-based
Details: engineered Jurkat cells overexpressing RORgT (LBD or full length) with Gal4 Luc reporter; 18 hours at 37° C.; 40 μM to 0.67 nM; read-out: RORg_GAL4 EC50
Experimental: The compound and the cells were incubated for 18 hours at 37° C. in a cell culture incubator. Cells were then lysed with 15 uL of Steady-Glo Luciferase Assay reagent (Promega EZ550), followed by centrifuging the assay plates at 1500 RPM for 1 minute. Subsequently, the plates were read on the Envision (PerkinElmer). The inhibition of constitutive activity of RORgT achieved by graded concentrations of compound was calculated as a percentage of the luminescence signal window reduction over a control compound.

EC50	Compound
296 nM	COc1ccc(Oc2c(Cl)cc(NC(=O)CC3CCCNC3)cc2Cl)cc1C(C)C (racemic) [Example 32, N-(3,5-dichloro-4-(3-isopropyl-4-methoxyphenoxy)phenyl)-2-(piperidin-3-yl)acetamide]
356 nM	COc1ccc(Oc2c(Cl)cc(NC(=O)CC3CCCN(S(C)(=O)=O)C3)cc2Cl)cc1C(C)C (racemic) [Example 41, N-(3,5-dichloro-4-(3-isopropyl-4-methoxyphenoxy)phenyl)-2-(1-(methylsulfonyl)piperidin-3-yl)acetamide]
207 nM	COc1ccc(Oc2c(Cl)cc(NC(=O)CC3CCCN(S(C)(=O)=O)C3)cc2Cl)cc1C(C)C (single isomer, unassigned) [Example 42, N-(3,5-dichloro-4-(3-isopropyl-4-methoxyphenoxy)phenyl)-2-(1-(methylsulfonyl)piperidin-3-yl)acetamide]
246 nM	COc1ccc(Oc2c(Cl)cc(NC(=O)CC3CCCN(S(C)(=O)=O)C3)cc2Cl)cc1C(C)C (single isomer, unassigned) [Example 43, N-(3,5-dichloro-4-(3-isopropyl-4-methoxyphenoxy)phenyl)-2-(1-(methylsulfonyl)piperidin-3-yl)acetamide]
829 nM	COc1ccc(Oc2c(Cl)cc(NC(=O)OCCS(C)(=O)=O)cc2Cl)cc1C(C)C [Example 1, 2-(methylsulfonyl)ethyl (3,5-dichloro-4-(3-isopropyl-4-methoxyphenoxy)phenyl)carbamate]
152 nM	COc1ccc(Oc2c(Cl)cc(NC(=O)Cc3ccc(N)nc3)cc2Cl)cc1C(C)C [Example 2, 2-(6-aminopyridin-3-yl)-N-(3,5-dichloro-4-(3-isopropyl-4-methoxyphenoxy)phenyl)acetamide]
54 nM	COc1ccc(Oc2c(Cl)cc(NC(=O)Cc3ccc(S(C)(=O)=O)nc3)cc2Cl)cc1C(C)C [Example 3, N-(3,5-dichloro-4-(3-isopropyl-4-methoxyphenoxy)phenyl)-2-(6-(methylsulfonyl) Pyridin-3-yl)acetamide]
121 nM	COc1ccc(Oc2c(Cl)cc(NC(=O)Cc3cccc(C#N)c3)cc2Cl)cc1C(C)C [Example 4, 2-(3-cyanophenyl)-N-(3,5-dichloro-4-(3-isopropyl-4-methoxyphenoxy)phenyl) acetamide]
437 nM	COc1ccc(Oc2c(Cl)cc(NC(=O)Cc3cccc(C(N)=O)c3)cc2Cl)cc1C(C)C [Example 5, 3-(2-((3,5-dichloro-4-(3-isopropyl-4-methoxyphenoxy)phenyl)amino)-2-oxoethyl)benzamide]
533 nM	COc1ccc(Oc2c(Cl)cc(NC(=O)Cc3cncc(C(N)=O)c3)cc2Cl)cc1C(C)C [Example 6, 5-(2-((3,5-dichloro-4-(3-isopropyl-4-methoxyphenoxy)phenyl)amino)-2-oxoethyl)nicotinamide]
173 nM	COc1ccc(Oc2c(Cl)cc(NC(=O)Cc3cn[nH]c3)cc2Cl)cc1C(C)C [Example 7]
81 nM	COc1ccc(Oc2c(Cl)cc(NC(=O)CCn3cc(S(C)(=O)=O)cn3)cc2Cl)cc1C(C)C [Example 9, N-(3,5-dichloro-4-(3-isopropyl-4-methoxyphenoxy)phenyl)-3-(4-(methylsulfonyl)-1H-pyrazol-1-yl)propanamide]
2120 nM	COc1ccc(Oc2c(Cl)cc(N3CC(CO)OC3=O)cc2Cl)cc1C(C)C (stereo not drawn) [Example 10, 3-(3,5-dichloro-4-(3-isopropyl-4-methoxyphenoxy)phenyl)-5-(hydroxymethyl) oxazolidin-2-one]
77 nM	COc1ccc(Oc2c(Cl)cc(N3CC(CNC(C)=O)OC3=O)cc2Cl)cc1C(C)C (stereo not drawn) [Example 11, N-((3-(3,5-dichloro-4-(3-isopropyl-4-methoxyphenoxy)phenyl)-2-oxooxazolidin-5-yl)methyl)acetamide]
1100 nM	COc1ccc(Oc2c(Cl)cc(N3CC(CNS(N)(=O)=O)OC3=O)cc2Cl)cc1C(C)C (stereo not drawn) [Example 12, N-[(3-{3,5-dichloro-4-[4-methoxy-3-(propan-2-yl)phenoxy]phenyl}-2-oxo-1,3-oxazolidin-5-yl)methyl]aminosulfonamide]
268 nM	COc1ccc(Oc2c(Cl)cc(NC(=O)Cc3cccnc3)cc2Cl)cc1C(C)(C)C [Example 13, N-(4-(3-(tert-butyl)-4-methoxyphenoxy)-3,5-dichlorophenyl)-2-(pyridin-3-yl)acetamide]
6.1 nM	CC(C)c1cc(F)cc(Oc2c(Cl)ccc(C(=O)NCc3ccc(S(N)(=O)=O)cc3)c2Cl)c1 [Example 16, 2,4-dichloro-3-(3-fluoro-5-isopropylphenoxy)-N-(4-sulfamoylbenzyl)benzamide]
5.2 nM	COc1ncc(Oc2c(Cl)cc(NC(=O)CN3CCN(S(C)(=O)=O)CC3)cc2Cl)cc1C(C)C [Example 17, N-(3,5-dichloro-4-((5-isopropyl-6-methoxypyridin-3-yl)oxy)phenyl)-2-(4-(methylsulfonyl)piperazin-1-yl)acetamide]
1870 nM	COc1ccc(Oc2c(Cl)ccc(C#N)c2Cl)cc1C(C)C [Example 18, 2,4-dichloro-3-(3-isopropyl-4-methoxyphenoxy)benzonitrile]
396 nM	COc1ccc(Oc2c(Cl)ccc(C(=O)NCCn3ccnc3)c2Cl)cc1C(C)C [Example 19, N-(2-(1H-imidazol-1-yl)ethyl)-2,4-dichloro-3-(3-isomethoxyphenoxy)benzamide]
650 nM	COc1ccc(Oc2c(Cl)ccc(CNS(=O)(=O)c3cccnc3)c2Cl)cc1C(C)C [Example 21, N-(2,4-dichloro-3-(3-isopropyl-4-methoxyphenoxy)benzyl)pyridine-3-sulfonamide]
95 nM	COc1ccc(Oc2c(Cl)ccc(CN(C)C(=O)c3ccc(S(C)(=O)=O)cc3)c2Cl)cc1C(C)C [Example 22, N-(2,4-dichloro-3-(3-isopropyl-4-methoxyphenoxy)benzyl)-N-methyl-4-(methylsulfonyl)benzamide]
49 nM	COc1ncc(Oc2c(Cl)ccc(NC(=O)Cc3ccc(S(C)(=O)=O)cc3)c2Cl)cc1C(C)C [Example 23, N-(2,4-dichloro-3-((5-isopropyl-6-methoxypyridin-3-yl)oxy)phenyl)-2-(4-(methylsulfonyl)phenyl)acetamide]
45 nM	COc1ncc(Oc2c(Cl)cc(NC(=O)CC3CCN(S(=O)(=O)C(C)C)CC3)cc2Cl)cc1C(C)C [Example 24, N-(3,5-dichloro-4-((5-isopropyl-6-methoxypyridin-3-yl)oxy)phenyl)-2-(1-(isopropylsulfonyl)piperidin-4-yl)acetamide]
626 nM	CC(C)c1cc(F)cc(Oc2c(Cl)cc(NC(=O)OC3CCCN(S(C)(=O)=O)C3)cc2Cl)c1 (stereo not drawn) [Example 25, 1-(methylsulfonyl)piperidin-3-yl (3,5-dichloro-4-(3-fluoro-5-isopropylphenoxy)phenyl)carbamate]
322 nM	CC(C)c1cc(F)cc(Oc2c(Cl)cc(NC(=O)NC3CCCN(S(C)(=O)=O)C3)cc2Cl)c1 (stereo not drawn) [Example 26, 1-(3,5-dichloro-4-(3-fluoro-5-isopropylphenoxy)phenyl)-3-(1-(methylsulfonyl)piperidin-3-yl)urea]
30 nM	COc1ncc(Oc2c(Cl)cc(NC(=O)CC3CCN(S(C)(=O)=O)CC3)cc2Cl)cc1C(C)(C)O [Example 27, N-(3,5-dichloro-4-((5-(2-hydroxypropan-2-yl)-6-methoxypyridin-3-yl)oxy)phenyl)-2-(1-(methylsulfonyl)piperidin-4-yl)acetamide]
